Measurements: the NIST ThermoML archive (doi:10.1021/je100615j)

Assay: mn = molality of the nth substance listed, in mol/kg
Conditions: 101.3 kPa, Liquid, Vibrating tube method

O=[N+]([O-])[O-].O=[N+]([O-])[O-].O=[N+]([O-])[O-].[Y+3] [yttrium nitrate] + O
mass density [kg/m3]
Conditions | m1 = 0.4989 | m1 = 0.9965 | m1 = 1.497 | m1 = 1.982 | m1 = 2.947 | m1 = 3.945 | m1 = 4.957
293.15 K | 1105.5 | 1202.6 | 1290.8 | 1368.7 | 1502.8 | 1615.7 | 1708.9
298.15 K | 1103.5 | 1200.2 | 1287.8 | 1365.4 | 1498.9 | 1611.4 | 1704.3
308.15 K | 1099.2 | 1194.7 | 1281.4 | 1358.2 | 1490.5 | 1602.2 | 1694.7

O=[N+]([O-])[O-].O=[N+]([O-])[O-].O=[N+]([O-])[O-].[Ce+3] [cerium nitrate] + O
mass density [kg/m3]
Conditions | m1 = 0.5112 | m1 = 1.031 | m1 = 1.555 | m1 = 1.997 | m1 = 3.131 | m1 = 3.968 | m1 = 4.462
293.15 K | 1131.2 | 1252.8 | 1361.9 | 1446.2 | 1633.2 | 1746.4 | 1806
298.15 K | 1129.3 | 1250.2 | 1358.8 | 1443.1 | 1629.1 | 1742.4 | 1801.8
308.15 K | 1124.7 | 1244.4 | 1352 | 1435.7 | 1620.5 | 1733.1 | 1792.2

O=[N+]([O-])[O-].O=[N+]([O-])[O-].O=[N+]([O-])[O-].[Nd+3] [neodymium(III) nitrate] + O
mass density [kg/m3]
Conditions | m1 = 0.522 | m1 = 1.021 | m1 = 1.555 | m1 = 2.093 | m1 = 3.086 | m1 = 4.124 | m1 = 4.297
293.15 K | 1136.1 | 1255.1 | 1369.8 | 1474.7 | 1642.1 | 1785.9 | 1807
298.15 K | 1134.2 | 1252.5 | 1366.7 | 1471.1 | 1637.8 | 1781.1 | 1802.7
308.15 K | 1129.6 | 1246.7 | 1359.9 | 1463.5 | 1628.8 | 1771.4 | 1792.8
